In patent publication US20170283340A1, “ALKYL THIOPHOSPHORIC TRIAMIDE AND NEEM OIL SOLVENT SYSTEMS FOR USE IN AGRICULTURAL APPLICATIONS” (RHODIA OPERATIONS, priority 2016, published 2017):

Columns and labels:
[1] = Thermal stability of NBPT at high temperature; assay type: physicochemical; conditions: followed by sludge/precipitate formation after weeks of high heat
Protocol: Another problem is that certain nitrification inhibitors and/or urease inhibitors degrade at certain high temperatures. […] Often times temperatures in agricultural fields (e.g., corn fields, wheat fields, etc.) reach in excess of 35° C. and sometimes can reach up to 45° C. or higher. For example, at 45° C. […] Thus, it is also desirable to have solvent systems containing nitrification inhibitors and/or urease inhibitors that are stabilized at high temperatures, such as those utilized in hot climates or weather. This invention addresses the addition of co-solvents and/or stabilizers to prolong the chemical and physical stability of formulated liquid agricultural compositions containing (i) one or more nitrification inhibitors, (ii) one or more urease inhibitors or (iii) a combination of both (i) and (ii). In one embodiment, the at least one urease inhibitor is NBPT. In one embodiment, the at least one nitrification inhibitor a natural nitrification inhibitor. In yet another embodiment, the at least one nitrification inhibitor is neem.

[2] = typically above 45° C.; cited from earlier work
[3] = cited from earlier work

Row | SMILES | appearance of NBPT formulated in different solvents at 45° C. [1] | degradation at higher temperature [2] | solubility in water [3]
1 | CCCCNP(N)(N)=S [NBPT, N-(n-butyl)-thiophosphoric triamide] | changes color in days from colorless to a darker green/brown | degrades rapidly | –
2 | N#CNC(=N)N [dicyandiamide, Dicyandiamide] | – | – | about 41 g/l
